# Experiments:
# [1] = mouse, in vivo
# Experimental: Nuclear microscopy experiments were performed at the Centre for Ion Beam Applications at the National University of Singapore, as described previously.6 Briefly, the samples were mounted onto a 3-axis stage within a scattering chamber maintained at <5×10−6 μmbar. A collimated proton beam (H+) at 2.1 MeV was generated using a 3.5 MV Singletron accelerator and kept incident onto the samples inclined at 45 degrees to the incident beam. The broad incident ion beam was focused down to a spot size of 1 μm and scanned across the region of interest. […]
# PIXE data was collected using a Si(Li) detector placed at 20 μmm from the samples to the Si(Li) crystal face. RBS and STIM data were measured by a passivated implanted planar silicon (PIPS) detector. […]
# Scanning transmission ion microscopy provides structural maps based on the energy lost by the protons as they pass through the relatively thin organic samples with thicknesses of 30 μm or less, enabling structural identification without fixing or staining. Trace elemental mapping was performed using particle-induced X-ray emission, which simultaneously provides multiple elements with high quantitative accuracy and sensitivity to a few parts per million in biological materials. […]
# [2] = target: T1, MPO activity in atherosclerotic plaque (Mus musculus, UniProt P11247); settings: for CNR of unstable plaque in the right carotid artery, 30 min after contrast injection / CNR of unstable plaque in the right carotid artery, 60 min after contrast injection: mean±SD
# T1 sequence (P11247 139-718): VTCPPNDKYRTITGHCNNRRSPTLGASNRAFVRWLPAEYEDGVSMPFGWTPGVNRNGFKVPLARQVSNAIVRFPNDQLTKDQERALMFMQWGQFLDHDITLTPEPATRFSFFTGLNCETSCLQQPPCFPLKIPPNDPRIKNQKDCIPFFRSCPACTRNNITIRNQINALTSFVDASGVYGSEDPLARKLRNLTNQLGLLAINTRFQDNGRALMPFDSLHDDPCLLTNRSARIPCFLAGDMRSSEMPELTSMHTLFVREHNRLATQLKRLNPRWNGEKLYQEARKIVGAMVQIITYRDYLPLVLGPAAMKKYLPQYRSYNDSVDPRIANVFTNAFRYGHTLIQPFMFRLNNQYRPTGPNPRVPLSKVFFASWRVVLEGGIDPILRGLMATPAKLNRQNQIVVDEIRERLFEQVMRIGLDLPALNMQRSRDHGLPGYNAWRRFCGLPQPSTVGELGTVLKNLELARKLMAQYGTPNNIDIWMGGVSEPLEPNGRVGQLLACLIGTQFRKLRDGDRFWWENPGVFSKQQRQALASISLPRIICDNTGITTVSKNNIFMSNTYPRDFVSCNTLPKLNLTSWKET
# Text: Scheme of action of bis-5HT-DTPA-Gd (MPO-Gd) and magnetic resonance imaging protocol. A, In the presence of H2O2, MPO oxidises the 5-hydroxytryptamine moiety of MPO-Gd to a phenoxyl radical, which then can give rise to either an MPO-Gd dimer or multimer (not shown) to amplify the signal. The phenoxyl radical-containing MPO-Gd may also covalently bind to proteins. […] B, Mice were imaged under isoflurane anaesthesia. Initial acquisition involved a localiser, time-of-flight and T1-weighted turbo spin echo (T1-TSE) imaging. Approximately 30 μmin after acquisition of baseline images, MPO-Gd (0.3 mmol/kg) was injected intravenously via the tail vein. Consecutive T1-TSE images were then acquired for 60 μmin following contrast injection. Segmental analysis of MPO activity was assessed by calculating the ΔCNR (CNRpost-contrast−CNRpre-contrast) for unstable and stable plaque, and non-diseased arterial segments.
# At 7 weeks following TS surgery, isoflurane-anaesthetised mice were imaged in the prone position using a 9.4T Bruker Biospec 94/20 Avance III system (Bruker, Ettlingen, Germany) with a 50-mm quadrature radiofrequency coil and respiratory-gated image acquisition. Mice were imaged before and after intravenous administration of 0.3 μmmol/kg of the MPO sensor bis-5-hydroxytryptamide-DTPA Gd (MPO-Gd) or DTPA-Gd (Magnevist, Bayer, Leverkusen, Germany) via a tail vein catheter. Prior to contrast injection, a flow-compensated 2D-FLASH time-of-flight (TOF) angiography in a coronal slice orientation was performed to assess intra-vessel (luminal) volume and geometry using a flow compensated 2D-GRE sequence (FLASH) for time-of-flight (TOF) angiography in an axial slice orientation with the following major parameters: TR 34 μms, TE 3 μms, slice thickness 0.5 μmm, interslice distance 0.35 μmm, 40 slices, matrix size 128×128, FOV 20×20 μmm, in-plane resolution 156×156 μm. This was followed by a T1-weighted fast spin echo (TurboRARE, T1-TSE) acquired in the same orientation with the following parameters: TR 1500 μms, TE 8.5 μms, ETL 8, slice thickness 1 μmm, FOV 20×20 μmm, matrix size 192×192, in-plane resolution 104×104 μm. This T1-TSE protocol was then repeated in a scan series covering a period of one hour following contrast injection to assess contrast agent inflow and retention. OsiriX (Version 7.0, Pixmeo, Switzerland) was used for image analysis. In T1-TSE images, separate regions of interest were assigned to the vessel wall, skeletal muscle (reference) and background (air). The contrast-to-noise ratio (CNR) was calculated as follows: CNR=(SIvessel wall−SIskeletal muscle)/SDbackground The mean CNRs of three consecutive slices in plaque with unstable phenotype and corresponding segments of the left carotid artery (plaque-free), in addition to 1-2 consecutive slices in the brachiocephalic trunk (stable plaque, SP), were calculated. Segmental enhancement attributable to MPO was assessed by calculating the ΔCNR=CNRpost-contrast−CNRpre-contrast.
# [3] = TS Apoe−/− mice, 0.3 mmol/kg i.v.
SMILES,Gd content of unstable plaque [1],"enhancement of the right carotid artery in TS Mpo−/−Apoe−/− mice ([2]; 60 min, compared with Apoe−/− mice)","enhancement of the brachiocephalic artery (stable plaque) [2, 3]","enhancement of the non-diseased vessel wall of the left carotid artery [2, 3]","CNR of unstable plaque in the right carotid artery, 30 min after contrast injection [2, 3]","CNR of unstable plaque in the right carotid artery, 60 min after contrast injection [2, 3]","period within which the enhancing material is washed out/eliminated from Segment I ([2]; mouse, in vivo) [weeks]",plaque specificity of enhancement 1 week after TS surgery ([2]; unstable plaque (Segment I) vs stable plaque (brachiocephalic artery))
"O=C([O-])CN(CCN(CC(=O)[O-])CC(=O)NCCc1c[nH]c2ccc(O)cc12)CCN(CC(=O)[O-])CC(=O)NCCc1c[nH]c2ccc(O)cc12.[Gd+3] [MPO-Gd, bis-5-hydroxytryptamide-DTPA Gd]",significant accumulation of Gd,attenuated enhancement,did not result in significant sustained enhancement,no significant enhancement,23.7±6.8,25±6.4,< 2,seen only in unstable plaque
CNC[C@H](O)[C@@H](O)[C@H](O)[C@H](O)CO.CNC[C@H](O)[C@@H](O)[C@H](O)[C@H](O)CO.O=C([O-])CN(CCN(CC(=O)[O-])CC(=O)O)CCN(CC(=O)[O-])CC(=O)O.[Gd+3] [DTPA-Gd],–,–,–,–,19.2±7.2,13.4±3.6,–,–

# — patent US12383158B2, “Detection of high-risk unstable atherosclerotic plaque” (The Heart Research Institute Ltd, priority 2018, dated 2025)
